The test system of this assay is PC3 cells. The assay can be described thus: PC3 cell binding / adhesion assay (MTT readout). It counts as cell-based, human. As for the experimental part: 96 well ELISA high binding plates were incubated overnight at 4°C with ephrinA1-Fc 1 µg/cm^2, 100 µl per well. The plates were washed three times with PBS and blocked for 1 hour with BSA 1%. Cells were treated with proper concentration of substance or DMSO 0.5% for 30 minutes in vials on a shaker. After that, plates were washed with PBS and incubated with 100 µl 5×10^5 cells/ml for 1 hour at 37°C. Finally, plates were washed with PBS and adhering cells were quantified using MTT colorimetric assay.
96-wells plates for cell culture were untretaed (A) or coated with 1 µg/cm^2 ephrinA1-Fc (B) overnight. PC3 cells were treated with the indicated compounds for 30 minutes in a tube and let to adhere for 60 minutes on the wells. Cell adhesion is reported normalizing adhesion of Fc to 100%. […] Data are the means of at least three independent experiment ± st. err. One-way ANOVA followed by Dunnet's post test was performed comparing Fc to all other column. No significant differences were detected for data in graph A. *, p<0.05, **,p<0.01.

Each structure is given as a SMILES string.

As to `C[C@H](CCC(=O)O)[C@H]1CC[C@H]2[C@@H]3CC[C@@H]4C[C@H](O)CC[C@]4(C)[C@H]3CC[C@]12C` [LCA, lithocholic acid], the “PC3 adhesion to ephrinA1-Fc” value (ephrinA1-Fc coated plates, increasing concentrations) was “dose-dependently inhibited”. Further, the “aspecific PC3 cell adhesion” value (uncoated standard cell culture plates) is “neither ephrinA1-Fc nor LCA inhibited”.

For the origin of these results see publication PMC3068151 (PLoS ONE, 2011).
